Results published in ChEMBL document CHEMBL1201862, “PubChem BioAssay data set” (2004).
Active and inactive are the calls of the source.

What was measured:
[1] = target: Solute carrier family 12 member 2/member 5 (Homo sapiens, UniProt P55011+Q9H2X9); assay: KCC2 and NKCC1 inhibition by rubidium flux, cell-based, NKCC1 counter-screen (AID 1734); format: functional, HEK293
NS3 = NS3 (Hepatitis C virus, UniProt A3EZJ3); assay: PubChem AID 2173; design: species or system Hepacivirus hominis
[2] = target: T1, Calpain-2 catalytic subunit (Sus scrofa, UniProt P43367); assay: pig calpain II inhibitor potency, dose response, biochemical, fluorogenic peptide substrate (AID 1420); format: functional
T1 sequence (P43367 whole entry): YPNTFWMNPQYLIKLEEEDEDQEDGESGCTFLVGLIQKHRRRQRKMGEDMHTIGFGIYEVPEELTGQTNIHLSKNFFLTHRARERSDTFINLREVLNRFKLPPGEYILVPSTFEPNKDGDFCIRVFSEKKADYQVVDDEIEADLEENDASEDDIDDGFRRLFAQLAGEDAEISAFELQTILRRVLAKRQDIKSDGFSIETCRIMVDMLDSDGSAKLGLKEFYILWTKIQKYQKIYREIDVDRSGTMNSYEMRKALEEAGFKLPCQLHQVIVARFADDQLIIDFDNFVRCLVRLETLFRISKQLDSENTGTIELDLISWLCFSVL

[3] = THP-1 cell cytotoxicity, dose response, cytotoxicity control for Vif-APOBEC3G degradation inhibitor project, THP-1 cells (AID 1117359); format: functional; details: Human immunodeficiency virus 1, THP-1
[4] = target: T2, Mannose-6-phosphate isomerase (Homo sapiens, UniProt P34949); assay: inhibitors of human PMI, primary screen, biochemical, fluorescence intensity, coupled assay (AID 1209)
T2 sequence (P34949 whole entry): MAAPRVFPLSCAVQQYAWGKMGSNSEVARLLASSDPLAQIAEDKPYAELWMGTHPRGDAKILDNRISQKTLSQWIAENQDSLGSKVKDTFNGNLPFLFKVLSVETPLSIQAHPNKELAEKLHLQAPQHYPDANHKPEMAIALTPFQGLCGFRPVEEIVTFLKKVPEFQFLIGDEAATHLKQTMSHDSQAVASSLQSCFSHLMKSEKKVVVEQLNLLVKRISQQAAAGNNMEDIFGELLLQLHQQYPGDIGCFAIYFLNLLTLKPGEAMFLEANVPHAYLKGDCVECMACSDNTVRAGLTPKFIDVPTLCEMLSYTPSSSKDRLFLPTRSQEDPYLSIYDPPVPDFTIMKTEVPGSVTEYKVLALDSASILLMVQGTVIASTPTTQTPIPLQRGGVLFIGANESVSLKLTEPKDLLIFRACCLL

Protein Tat = target: T3, Protein Tat (Human immunodeficiency virus type 1 group M subtype B (isolate HXB2)(HIV-1), UniProt P04608); format: functional;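 note: tat binding to TAR RNA read out by fluorescence polarization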
T3 sequence (P04608 whole entry): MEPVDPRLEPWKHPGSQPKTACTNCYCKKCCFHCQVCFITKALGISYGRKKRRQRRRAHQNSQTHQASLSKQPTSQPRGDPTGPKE

[5] = target: T4, Replicative DNA helicase DnaB (Mycobacterium tuberculosis, UniProt P9WMR3); assay: DnaB intein splicing inhibitors, dose response, biochemical, cell-free fluorescence (AID 449749); format: functional
T4 sequence (P9WMR3 whole entry): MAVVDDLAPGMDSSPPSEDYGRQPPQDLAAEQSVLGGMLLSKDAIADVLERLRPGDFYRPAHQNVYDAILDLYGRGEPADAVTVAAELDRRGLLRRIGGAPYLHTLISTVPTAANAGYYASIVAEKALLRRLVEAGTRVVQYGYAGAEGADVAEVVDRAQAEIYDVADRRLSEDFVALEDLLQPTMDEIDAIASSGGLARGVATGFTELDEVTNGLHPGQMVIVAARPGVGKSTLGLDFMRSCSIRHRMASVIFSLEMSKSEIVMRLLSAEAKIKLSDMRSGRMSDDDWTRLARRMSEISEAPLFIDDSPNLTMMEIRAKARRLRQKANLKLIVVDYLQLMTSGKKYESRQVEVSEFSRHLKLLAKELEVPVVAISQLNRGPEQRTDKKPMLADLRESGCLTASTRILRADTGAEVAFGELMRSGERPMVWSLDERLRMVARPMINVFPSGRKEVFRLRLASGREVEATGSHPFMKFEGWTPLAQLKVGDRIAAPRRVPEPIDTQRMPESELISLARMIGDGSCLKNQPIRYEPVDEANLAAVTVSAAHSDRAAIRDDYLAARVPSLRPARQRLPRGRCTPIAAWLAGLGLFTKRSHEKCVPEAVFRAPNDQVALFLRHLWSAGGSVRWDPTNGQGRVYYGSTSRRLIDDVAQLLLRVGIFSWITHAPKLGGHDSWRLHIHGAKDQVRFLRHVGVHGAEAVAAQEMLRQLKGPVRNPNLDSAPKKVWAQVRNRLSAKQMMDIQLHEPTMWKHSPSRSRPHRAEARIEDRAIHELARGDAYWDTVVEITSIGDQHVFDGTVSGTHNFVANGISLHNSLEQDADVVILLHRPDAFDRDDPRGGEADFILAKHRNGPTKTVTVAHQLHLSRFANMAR

[6] = Vero cell cytotoxicity, dose response, cytotoxicity control for Vif-APOBEC3G degradation inhibitor project, Vero cells (AID 1117358); format: functional; details: Human immunodeficiency virus 1, Vero
Protein RecA = target: T5, Protein RecA (Mycobacterium tuberculosis, UniProt P9WHJ3); assay: Fluorescence Cell-Free Homogeneous Dose Retest to Identify Inhibitors of RecA-Intein Splicing Activity. [Related pubchem assays (depositor defined):AID2097, AID2223, AID489010, AID492950]; format: functional
T5 sequence (P9WHJ3 whole entry): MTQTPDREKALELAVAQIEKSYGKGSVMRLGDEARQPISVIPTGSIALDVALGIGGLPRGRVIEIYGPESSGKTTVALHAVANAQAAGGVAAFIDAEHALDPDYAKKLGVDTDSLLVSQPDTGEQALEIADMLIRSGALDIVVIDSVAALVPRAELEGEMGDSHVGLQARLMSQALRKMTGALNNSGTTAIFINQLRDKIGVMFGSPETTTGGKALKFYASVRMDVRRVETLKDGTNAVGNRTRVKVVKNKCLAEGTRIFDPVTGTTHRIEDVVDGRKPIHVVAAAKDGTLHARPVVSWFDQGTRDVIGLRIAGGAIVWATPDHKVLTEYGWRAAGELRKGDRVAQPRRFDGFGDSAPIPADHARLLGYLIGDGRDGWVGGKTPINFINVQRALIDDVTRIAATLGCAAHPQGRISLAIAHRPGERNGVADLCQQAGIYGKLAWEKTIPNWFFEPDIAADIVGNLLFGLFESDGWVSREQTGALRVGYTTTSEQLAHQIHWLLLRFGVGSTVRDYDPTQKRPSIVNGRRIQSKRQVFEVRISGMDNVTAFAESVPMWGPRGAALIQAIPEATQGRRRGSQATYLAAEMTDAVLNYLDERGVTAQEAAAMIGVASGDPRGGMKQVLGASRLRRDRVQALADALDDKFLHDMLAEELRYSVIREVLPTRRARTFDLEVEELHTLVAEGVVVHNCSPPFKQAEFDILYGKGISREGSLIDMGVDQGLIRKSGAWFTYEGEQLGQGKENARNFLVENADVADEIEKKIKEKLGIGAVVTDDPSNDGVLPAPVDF

[7] = target: T6, Carboxy-terminal domain RNA polymerase II polypeptide A small phosphatase 1 (Homo sapiens, UniProt Q9GZU7); assay: inhibitors of CTDSP1, concentration-response testing, biochemical assay, absorbance-based, actives from ultra-high-throughput screening (AID 540297); format: functional
T6 sequence (Q9GZU7 whole entry): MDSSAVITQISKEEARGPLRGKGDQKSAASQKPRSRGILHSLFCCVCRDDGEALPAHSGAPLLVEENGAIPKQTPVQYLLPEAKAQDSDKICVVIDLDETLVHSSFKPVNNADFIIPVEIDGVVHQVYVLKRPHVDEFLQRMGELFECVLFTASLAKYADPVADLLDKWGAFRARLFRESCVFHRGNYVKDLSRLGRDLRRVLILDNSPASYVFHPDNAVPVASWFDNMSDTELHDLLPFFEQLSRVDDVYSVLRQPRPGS

[8] = target: Dual specificity tyrosine-phosphorylation-regulated kinase 1A (Rattus norvegicus, UniProt Q63470); format: biochemical, Homo sapiens
Estrogen receptor = target: T7, Estrogen receptor (Homo sapiens, UniProt P03372);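 note: potency for inhibiting coactivator peptide recruitment to the receptor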
T7 sequence (P03372 whole entry): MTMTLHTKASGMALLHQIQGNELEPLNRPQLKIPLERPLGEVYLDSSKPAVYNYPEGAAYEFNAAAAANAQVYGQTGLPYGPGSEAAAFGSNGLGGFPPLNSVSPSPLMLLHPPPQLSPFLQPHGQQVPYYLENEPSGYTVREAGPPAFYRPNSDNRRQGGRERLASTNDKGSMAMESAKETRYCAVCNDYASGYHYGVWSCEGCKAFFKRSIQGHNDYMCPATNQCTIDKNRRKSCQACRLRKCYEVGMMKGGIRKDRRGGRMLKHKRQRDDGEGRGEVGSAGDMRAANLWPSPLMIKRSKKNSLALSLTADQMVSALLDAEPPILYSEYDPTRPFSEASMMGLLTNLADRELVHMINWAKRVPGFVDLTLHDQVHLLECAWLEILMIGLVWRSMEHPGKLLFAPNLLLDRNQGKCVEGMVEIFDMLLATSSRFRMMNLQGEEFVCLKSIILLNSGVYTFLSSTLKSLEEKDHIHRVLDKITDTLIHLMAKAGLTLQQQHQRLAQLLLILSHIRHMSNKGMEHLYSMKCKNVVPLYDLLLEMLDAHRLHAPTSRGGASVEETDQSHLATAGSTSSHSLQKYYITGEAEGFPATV

Genome polyprotein = Genome polyprotein (Hepatitis C virus, UniProt Q2Q167); assay: HCV core protein dimerization inhibitors, dose response, biochemical, TR-FRET (AID 2159); design: species or system Hepacivirus hominis;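 note: blocks dimerization of HCV core protein measured by TR-FRET between tagged core106 pairs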
Large T antigen = Large T antigen (Simian virus 40, UniProt P03070); format: functional, Betapolyomavirus macacae;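 note: Confirmatory-stage PubChem screen for compounds that inhibit SV40 T antigen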
Heat shock protein HSP90 = Heat shock protein HSP90 (Homo sapiens, UniProt P07900+P08238); assay: tumor Hsp90 inhibitor potency, dose response (AID 712); format: functional
[9] = target: DNA dC->dU-editing enzyme APOBEC-3G (Homo sapiens, UniProt Q9HC16); assay: Dose Response confirmation of small molecule APOBEC3G DNA Deaminase Inhibitors via a fluorescence-based single-stranded DNA deaminase assay. [Related pubchem assays (depositor defined):AID493012, AID493028]; format: functional
[10] = NIH-3T3 fibroblast cytotoxicity, dose response, cytotoxicity control, cell-based, fluorescence, Alamar Blue, secondary assay (AID 2327); format: functional;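 note: NIH-3T3 mouse fibroblasts cultured with fluconazole at 8 µg/mL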
[11] = target: T2, Mannose-6-phosphate isomerase; assay: human PMI inhibitors, high substrate, primary screen, biochemical, fluorescence intensity, high mannose 6-phosphate (AID 1220)
[12] = C. albicans growth with fluconazole, confirmation, fluorescence, retest (AID 2467); format: functional, cell-based
[13] = target: T8, Microphthalmia-associated transcription factor (Homo sapiens, UniProt O75030); assay: TRPM1 promoter luciferase signal decrease, dose response, MITF inhibitor project, cell-based, SK-MEL-5, cherry-picked, set 3 (AID 493073); format: functional
T8 sequence (O75030 whole entry): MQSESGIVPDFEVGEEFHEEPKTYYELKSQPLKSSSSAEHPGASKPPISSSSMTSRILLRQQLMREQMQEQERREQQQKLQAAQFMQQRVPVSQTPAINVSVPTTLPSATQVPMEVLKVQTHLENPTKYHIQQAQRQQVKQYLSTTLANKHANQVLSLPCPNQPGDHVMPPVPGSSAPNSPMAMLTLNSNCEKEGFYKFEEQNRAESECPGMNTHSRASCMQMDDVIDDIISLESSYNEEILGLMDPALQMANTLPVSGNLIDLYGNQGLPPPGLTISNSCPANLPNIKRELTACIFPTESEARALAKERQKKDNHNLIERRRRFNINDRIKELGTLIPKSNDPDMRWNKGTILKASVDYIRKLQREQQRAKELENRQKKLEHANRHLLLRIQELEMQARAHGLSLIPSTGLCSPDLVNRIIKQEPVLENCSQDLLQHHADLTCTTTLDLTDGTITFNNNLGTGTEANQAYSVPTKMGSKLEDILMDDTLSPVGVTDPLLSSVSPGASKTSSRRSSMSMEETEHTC

[14] = target: E3 ubiquitin-protein ligase Mdm2 (Homo sapiens, UniProt Q00987); assay: enhancers of MDM2-luciferase reporter signal, concentration-effect titration, project on inhibitors of MDM2 ubiquitin ligase, cellular assay, luminescent readout, 384-well plate format (AID 1394); format: functional;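 note: MDM2 E3 inhibitors raise luminescence so EC50 is for signal enhancement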
Sequence of E3 ubiquitin-protein ligase Mdm2 (Q00987 whole entry): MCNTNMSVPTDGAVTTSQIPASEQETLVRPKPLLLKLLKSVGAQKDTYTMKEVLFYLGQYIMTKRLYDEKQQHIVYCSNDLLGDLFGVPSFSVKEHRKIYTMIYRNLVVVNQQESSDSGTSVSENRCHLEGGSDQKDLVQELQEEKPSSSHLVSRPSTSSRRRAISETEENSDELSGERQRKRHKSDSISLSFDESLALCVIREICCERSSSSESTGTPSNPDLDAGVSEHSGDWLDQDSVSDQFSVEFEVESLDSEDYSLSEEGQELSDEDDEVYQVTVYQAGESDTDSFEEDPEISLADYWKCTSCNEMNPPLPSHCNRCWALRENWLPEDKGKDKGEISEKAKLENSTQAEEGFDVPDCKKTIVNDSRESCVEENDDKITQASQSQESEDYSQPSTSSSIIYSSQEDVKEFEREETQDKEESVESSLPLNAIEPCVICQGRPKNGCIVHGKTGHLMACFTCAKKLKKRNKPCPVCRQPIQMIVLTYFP

Sequence of Large T antigen (P03070 whole entry): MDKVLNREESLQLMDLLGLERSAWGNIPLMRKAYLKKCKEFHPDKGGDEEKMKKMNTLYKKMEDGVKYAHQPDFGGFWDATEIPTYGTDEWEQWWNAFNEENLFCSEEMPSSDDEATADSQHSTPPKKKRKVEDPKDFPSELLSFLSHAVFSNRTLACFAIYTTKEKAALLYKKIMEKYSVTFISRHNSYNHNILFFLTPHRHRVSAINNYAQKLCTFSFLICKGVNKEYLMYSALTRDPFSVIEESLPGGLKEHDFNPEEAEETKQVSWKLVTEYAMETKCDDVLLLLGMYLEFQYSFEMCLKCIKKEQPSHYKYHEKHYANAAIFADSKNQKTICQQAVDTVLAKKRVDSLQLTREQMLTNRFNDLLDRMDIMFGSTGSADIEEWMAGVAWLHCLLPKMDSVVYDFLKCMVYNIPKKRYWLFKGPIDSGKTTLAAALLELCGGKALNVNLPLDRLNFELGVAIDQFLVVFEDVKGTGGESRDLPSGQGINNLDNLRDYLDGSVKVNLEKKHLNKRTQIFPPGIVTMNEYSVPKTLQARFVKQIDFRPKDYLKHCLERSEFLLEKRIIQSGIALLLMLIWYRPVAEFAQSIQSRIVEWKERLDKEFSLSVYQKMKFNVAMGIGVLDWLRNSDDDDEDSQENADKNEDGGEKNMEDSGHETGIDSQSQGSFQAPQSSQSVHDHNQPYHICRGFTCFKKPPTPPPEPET
Sequence of Genome polyprotein (Q2Q167 whole entry): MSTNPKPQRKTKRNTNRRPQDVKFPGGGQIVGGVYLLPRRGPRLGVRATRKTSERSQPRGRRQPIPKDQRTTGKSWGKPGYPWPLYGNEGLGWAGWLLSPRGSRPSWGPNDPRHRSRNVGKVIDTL
Sequence of NS3 (A3EZJ3 whole entry): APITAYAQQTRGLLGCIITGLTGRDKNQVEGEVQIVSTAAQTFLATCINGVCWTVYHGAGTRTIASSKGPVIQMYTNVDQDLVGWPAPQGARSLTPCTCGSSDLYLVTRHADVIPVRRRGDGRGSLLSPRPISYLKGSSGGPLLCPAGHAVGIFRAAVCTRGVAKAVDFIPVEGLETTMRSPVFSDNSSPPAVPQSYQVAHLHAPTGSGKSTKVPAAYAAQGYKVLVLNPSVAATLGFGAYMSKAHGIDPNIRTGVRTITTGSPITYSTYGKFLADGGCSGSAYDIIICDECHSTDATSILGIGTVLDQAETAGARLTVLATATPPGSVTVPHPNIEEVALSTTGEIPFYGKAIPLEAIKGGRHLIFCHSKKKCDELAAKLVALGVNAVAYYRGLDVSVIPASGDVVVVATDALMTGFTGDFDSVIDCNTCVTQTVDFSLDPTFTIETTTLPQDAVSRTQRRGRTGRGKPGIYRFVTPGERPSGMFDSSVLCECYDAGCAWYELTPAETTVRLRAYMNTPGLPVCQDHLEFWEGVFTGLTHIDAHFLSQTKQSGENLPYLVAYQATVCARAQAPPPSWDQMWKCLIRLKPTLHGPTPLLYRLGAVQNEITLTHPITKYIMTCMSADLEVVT
Sequence of DNA dC->dU-editing enzyme APOBEC-3G (Q9HC16 whole entry): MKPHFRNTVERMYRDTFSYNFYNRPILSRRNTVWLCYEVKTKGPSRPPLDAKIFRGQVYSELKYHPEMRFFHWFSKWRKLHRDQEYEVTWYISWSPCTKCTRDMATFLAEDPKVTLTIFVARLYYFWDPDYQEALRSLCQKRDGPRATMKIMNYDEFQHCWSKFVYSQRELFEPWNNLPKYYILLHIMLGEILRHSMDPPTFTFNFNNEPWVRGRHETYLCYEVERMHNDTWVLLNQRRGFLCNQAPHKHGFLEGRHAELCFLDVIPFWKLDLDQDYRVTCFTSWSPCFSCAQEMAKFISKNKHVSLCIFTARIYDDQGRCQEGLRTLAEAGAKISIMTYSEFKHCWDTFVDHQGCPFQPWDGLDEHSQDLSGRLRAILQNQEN

CCOc1ccc(N2C(=O)C3Sc4nc(O)sc4C(/C=C/c4ccccc4)C3C2=O)cc1 (stereo not given)
IC50 [1]: 0.3 µM (active)
IC50 (NS3): 15.4 µM (not active)

CCOc1cc(CNc2ccc(O)cc2)ccc1OCc1ccc(Cl)cc1Cl
IC50 [2]: 7.31 µM (not active)
CC50 [3]: 13.9 µM (active)
IC50 [4]: > 50 µM (not active)
IC50 (Protein Tat): 34 µM (inconclusive)
AC50 [5]: > 380 µM (inconclusive)
CC50 [6]: > 40 µM (active)
EC50 (Protein RecA): 331 µM (active)

CCC1(CC)NC(=O)N(CC(=O)Nc2sc3c(c2C(N)=O)CCC3)C1=O
IC50 [7]: 3.98 µM (active)
AC50 [8]: 32.9 µM (active)
IC50 (Estrogen receptor): < 1.56 µM (active)
IC50 (Genome polyprotein): > 49.8 µM (not active)

Oc1ccc(/N=C/c2ccc(O)c(O)c2)cc1
IC50 (Large T antigen): 9.16 µM (active)
CC50 [3]: 22.2 µM (active)
IC50 (Heat shock protein HSP90): 20.6061 µM
IC50 (Protein Tat): 15 µM (inconclusive)
AC50 [5]: 10.5 µM (inconclusive)
EC50 (Protein RecA): > 380 µM (inconclusive)

O=[N+]([O-])c1ccc2c(c1)nc(S)n2-c1ccccc1
IC50 [9]: 9.42 µM (active)
EC50 [10]: > 150 µM (inactive)
IC50 [11]: 39.6 µM (active)
EC50 [12]: 2.85 µM (active)

CC(C)CC(=O)/C=C/n1c(=S)oc2ccccc21
AC50 [13]: 10.5 µM (active)
EC50 [14]: 1.2 µM (active)
